System: 266 human PDZ domains (PDZome)
Test: Holdup assay (chromatographic retention, PDZome-binding profile, BI)
Set-up: key to maximal BI / Max BI / BI: binding intensity: 0.00 = no binding, 1.00 = maximal binding
Description: The holdup method is a chromatographic approach in solution developed in our group that allows to measure the binding strength of a peptide, attached to a resin, against a library of domains of a same family. We initially proposed this method to explore the interaction between PBM peptides and the human PDZ domains. Briefly, a soluble cell lysate containing individually overexpressed PDZ domain is incubated until equilibrium with a calibrated amount of streptavidin-resin saturated either with the target biotinylated PBM peptide or with biotin as a reference. The flow-throughs containing the unbound protein fraction are recovered by filtration and loaded on a capillary electrophoresis instrument to quantify the amount of remaining free PDZ. The stronger the steady-state depletion of the PDZ domain in the flow-through as compared to the reference, the stronger the PDZ/PBM binding interaction. The assay is particularly suited to quantitatively evaluate and compare large numbers of interactions. This method delivers, for each PBM/PDZ pair, a "binding intensity" (BI), whose value can in principle range from 0.00 (no binding event detected) to 1.00 (maximal binding event). The approach has been automated and the human PDZ library was recently extended to the complete 266 PDZ domains known in human proteome. […] The high accuracy and efficiency of the holdup assay have been validated previously. Very recently, a manual version of the holdup assay with purified samples and using widespread benchtop equipment has been implemented and has proven to be reliable.
The 266 PDZ domains that constitute the PDZ library (“PDZome V.2”) used in the present work were produced using constructs with optimized boundaries as described previously. All the genes were fused to Maltose-Binding Protein (MBP) or Thioredoxin (THR) tag often used to facilitate the solubilisation of the over-expressed protein, by cloning them into the pETG41A or pETG20A plasmid, respectively. […] The expressed tag-PDZ concentrations were quantified using capillary gel electrophoresis and cell lysates were diluted to reach approximately 5 μM tag-PDZ before freezing in 96-well plates. A detailed protocol of the PDZ library production, expression and benchmarking can be found in [32]. PDZ domains are named according to their originating protein name followed by the PDZ number (e.g. NHERF1-1 as the first PDZ domain of the NHERF1 protein).
The holdup assay was performed on a Tecan freedom Evo200 robot with 384-well plates in singlicate for the three 11-mer PTEN variants and the 13-mer PTEN peptide as described in [31, 32]. Briefly, prior to interaction assay, 2.5 μL of streptavidin resin was saturated in each well with 20 μL of biotinylated PBM peptides (42 μM) and then washed twice with an excess of free biotin, while the reference resin was incubated only with biotin. Right before the holdup experiment, the PDZ library was spiked with an internal standard of lysozyme. Then, the biotin- or PBM-saturated resin was incubated, each in a distinct well of a 384-well plate, with complete cell lysates diluted so that the concentration of the tag-PDZ present in the crude extract is adjusted at 4 μM. After a sufficient time to reach complex equilibrium (15 min.), a fast and mild filtration step is performed and the tag-PDZ concentrations were measured by capillary electrophoresis instrument (LabChip GXII, PerkinElmer, Massachusets, USA). Standard markers were used to convert migration time into molecular weight on the LabChip software and inappropriate molecular weight markers were corrected or excluded.
Holdup data quality check and processing […]

`CC[C@H](C)[C@H](NC(=O)[C@H](CCC(N)=O)NC(=O)[C@@H](NC(=O)[C@H](Cc1c[nH]cn1)NC(=O)[C@H](CCC(N)=O)NC(=O)[C@H](CC(=O)O)NC(=O)[C@H](CCC(=O)O)NC(=O)[C@H](CC(=O)O)NC(=O)CCC(=O)NCCCOCCOCCOCCCNC(=O)CCCC[C@@H]1SC[C@@H]2NC(=O)N[C@@H]21)[C@@H](C)O)C(=O)N[C@H](C(=O)N[C@@H](CCCCNC(C)=O)C(=O)N[C@H](C(=O)O)C(C)C)[C@@H](C)O` [PTEN_Ac] was tested, and the “number of additional new PDZ partners not detected for PTEN_11” value (BI>0.20, compared with PTEN_11) was “at least 20”, the BI (PDZ domain MPDZ-2) was 0.353 and the BI (PDZ domain MPDZ-3) was 0.002. The BI (PDZ domain MPDZ-4) was 0.029, the BI (PDZ domain MPDZ-5) was -0.014 and the BI (PDZ domain MPDZ-6) was -0.058. For the same compound, the BI (PDZ domain MPDZ-7) was 0.624, the BI (PDZ domain MPDZ-8) was 0.172 and the BI (PDZ domain MPDZ-9 (gene NHERF2, 2)) was 0.016. It also gave a BI (PDZ domain MPDZ-12) of 0.019, a BI (PDZ domain MPDZ-13) of 0.351 and a BI (PDZ domain MPP1-1) of -0.054. It also gave a BI (PDZ domain MPP3-1) of -0.063, a BI (PDZ domain MPP4-1) of -0.043 and a BI (PDZ domain MPP5-1) of -0.048. The BI (PDZ domain MPP6-1) was -0.03, the BI (PDZ domain MPP7-1) was -0.045 and the BI (PDZ domain NHERF1-2) was 0.046. The BI (PDZ domain NHERF3-1) was 0.45, the BI (PDZ domain NHERF3-2) was 0.105 and the BI (PDZ domain NHERF3-3) was 0.021. For the same compound, the BI (PDZ domain NHERF3-4) was -0.017, the BI (PDZ domain NHERF4-1) was -0.007 and the BI (PDZ domain NHERF4-2) was 0.014. It also gave a BI (PDZ domain NHERF4-3) of -0.031, a BI (PDZ domain NHERF4-4) of -0.03 and a BI (PDZ domain NOS1-1) of 0.106. For the same compound, the BI (PDZ domain PARD3-1, first of two lines so named (r186)) was 0.035, the BI (PDZ domain PARD3-1, second of two lines so named (r187)) was -0.073 and the BI (PDZ domain PARD3-2) was 0.074. For the same compound, the BI (PDZ domain PARD3B-1) was -0.205, the BI (PDZ domain PARD3B-2) was -0.04 and the BI (PDZ domain PARD3B-3) was -0.007. The BI (PDZ domain PARD6A-1) was 0.007, the BI (PDZ domain PARD6G-1) was -0.034 and the BI (PDZ domain PCLO-1) was -0.088. For the same compound, the BI (PDZ domain PDLIM1-1) was -0.087, the BI (PDZ domain PDLIM3-1) was -0.026 and the BI (PDZ domain PDLIM4-1) was -0.03. It also gave a BI (PDZ domain PDLIM5-1) of -0.022, a BI (PDZ domain PDLIM7-1) of -0.025 and a BI (PDZ domain PDZD2-1) of -0.095. The BI (PDZ domain PDZD2-2) was 0.195, the BI (PDZ domain PDZD2-3) was 0.017 and the BI (PDZ domain PDZD2-5) was -0.091. The BI (PDZ domain PDZD2-6) was -0.026, the BI (PDZ domain PDZD4-1) was 0.085 and the BI (PDZ domain PDZD7-1) was -0.051. For the same compound, the BI (PDZ domain PDZD7-3) was 0.901, the BI (PDZ domain PDZD8-1) was -0.202 and the BI (PDZ domain PDZD9-1) was -0.019. It also gave a BI (PDZ domain PDZD11-1) of -0.017, a BI (PDZ domain PDZRN3-1) of -0.019 and a BI (PDZ domain PDZRN3-2) of 0.016. It also gave a BI (PDZ domain PDZRN4-1) of -0.064, a BI (PDZ domain PDZRN4-2) of 0.099 and a BI (PDZ domain PICK1-1) of 0.052. The BI (PDZ domain PPP1R9A-1) was 0.066, the BI (PDZ domain PPP1R9B-1) was -0.044 and the BI (PDZ domain PREX1-1) was -0.014. It also gave a BI (PDZ domain PREX2-2) of 0.096, a BI (PDZ domain PRX-1) of -0.021 and a BI (PDZ domain PSCDBP-1) of -0.005. For the same compound, the BI (PDZ domain PSMD9-1) was -0.007, the BI (PDZ domain PTPN3-1) was 0.05 and the BI (PDZ domain PTPN4-1) was 0.02. The BI (PDZ domain PTPN13-1) was -0.024, the BI (PDZ domain PTPN13-3) was -0.028 and the BI (PDZ domain PTPN13-5) was -0.046. It also gave a BI (PDZ domain RADIL-1) of 0.522, a BI (PDZ domain RAPGEF2-1) of -0.076 and a BI (PDZ domain RAPGEF6-1) of 0.035. For the same compound, the BI (PDZ domain RGS3-1) was -0.001, the BI (PDZ domain RGS12-1) was 0.033 and the BI (PDZ domain RHPN2-1) was -0.044. It also gave a BI (PDZ domain RIMS1-1) of -0.02, a BI (PDZ domain RIMS2-1) of -0.022 and a BI (PDZ domain SCRIB-2) of 0.163. It also gave a BI (PDZ domain SCRIB-4) of 0.058, a BI (PDZ domain SDCBP2-2) of -0.013 and a BI (PDZ domain SDCBP-2) of -0.05. For the same compound, the BI (PDZ domain SHANK1-1) was 0.152, the BI (PDZ domain SHANK2-1) was 0.209 and the BI (PDZ domain SHANK3-1) was 0.235. The BI (PDZ domain SHROOM2-1) was -0.072, the BI (PDZ domain SHROOM3-1) was -0.048 and the BI (PDZ domain SHROOM4-1) was -0.073. The BI (PDZ domain SIPA1L2-1) was -0.001, the BI (PDZ domain SIPA1L3-1) was -0.046 and the BI (PDZ domain SNTA1-1) was 0.41. For the same compound, the BI (PDZ domain SNTB1-1) was 0.548, the BI (PDZ domain SNTG1-1) was 0.345 and the BI (PDZ domain SNTG2-1) was -0.077. For the same compound, the BI (PDZ domain STXB4-1) was -0.072, the BI (PDZ domain SYNJ2BP-1) was 0.023 and the BI (PDZ domain SYNP2-1) was 0.005. The BI (PDZ domain SYNPO2L-1) was 0.063, the BI (PDZ domain TIAM1-1) was -0.072 and the BI (PDZ domain TIAM2-1) was -0.008. For the same compound, the BI (PDZ domain TJP1-1) was 0.198, the “number of PDZ domains identified as potential binders (BI>0.20)” value (holdup, singlicate, threshold BI>0.20) was 43 PDZ domains and the “maximal BI” value (holdup, singlicate, highest BI in the PDZome profile, BI standard error ~0.07) was 0.90. For the same compound, the “binding of several PDZ domains (in words)” value (including several ones from MAGI and NHERF) was “detectably bound”, the “Max BI” value (maximum over PDZome) was 0.90 and the “number of partners detected for PTEN_Ac and not for PTEN_KR” value (over a total of 43) was 15.
